These results are taken from US11180459B2, “Bacterial efflux pump inhibitors” (RUTGERS, THE STATE UNIVERSITY OF NEW JERSEY, priority 2017, dated 2021).

Where a name gives a salt, the structure may show the parent alone. Marks after values point to notes of the source that are not given here.

A word on the MIC: it is the lowest concentration that inhibits growth of the organism.

The test system of test [1] is P. aeruginosa [ATCC 27853]. Nature of the test: Mouse septicemia model of infection. The format is in vivo, Swiss Webster female mice. The note with it: Experiment #521, cefepime 10 mg/ml b.i.d. The procedure: A general method for the in vivo assessment of bacterial EPIs is complicated by the fact that that both the antibiotic and the EPI need to be present for synergy to be achieved. A general method was discovered that has proven to be effective in establishing the relative efficacy of bacterial EPIs in a mouse septicemia model. The bacterial EPI is administered initially intravenously to mice with septicemia, followed 5 minutes later by the intravenous administration or oral administration of the antibiotic. A second administration of the EPI is then administered subcutaneously after an additional 5 minutes to act as a booster, followed by the final administration of the antibiotic either intravenously or orally after the second administration of the EPI. […] In a few instances, a second regiment of both EPI and antibiotic as administered on day 1 was required after 24 hours to affect cures.
Determination of the in vivo efficacy of bacterial efflux pump inhibitors (EPIs) can be efficiently determined using a mouse septicemia model of infection. The systemic infection is initiated by a 500 ul intraperitoneal injection of an inoculum containing bacteria (such as P. aeruginosa [ATCC 27853]) at a concentration of approximately 5×10^5 cells in 5% mucin in Swiss Webster female mice. […]

Test [2] concerns Escherichia coli ATCC 25922. Nature of the test: Standard EPI assay: clarithromycin MIC with EPI. The class given is cell-based. The following applies: clarithromycin as antibiotic; E. coli ATCC 25922; EPI at 6.25 (μg). How it is done: (§1) MIC assays were conducted in accordance with Clinical and Laboratory Standards Institute (CLSI) guidelines for broth microdilution.
(§2) The EPI assay for the purposes of these studies represents a MIC assay in which the MIC of the antibiotic against the bacteria is tested in the presence of an experimental efflux pump inhibitor (EPI). The highest concentration of the EPI present in the assay typically is ½ of the intrinsic MIC of the compound. If the intrinsic MIC of the EPI is greater than 100 μg/mL, the EPI assay was tested with 50 μg/mL. Using serial dilutions of the EPI, its enhancement of antibiotic activity was then evaluated. The relative EPI activity was decided by comparing the MIC of the antibiotic in the presence of the EPI compound with the intrinsic MIC of the antibiotic alone. For the evaluation of the efficacy of an EPI against bacteria that were pre-exposed to an antibiotic, the inoculum of bacteria that used was developed from a bacterial culture isolated as a single colony following exposure at ½ the MIIC of the antibiotic (so as to induce efflux pump expression), was to be used in combination with the EPI.
(§3) In our standard EPI assay, the MIC of the test antibiotic is determined in the absence and presence of sub-inhibitory concentrations of the EPI. Initially, the sub-inhibitory concentration used was ½×MIC of the EPI. […] The MIC of levofloxacin against P. aeruginosa ATCC 27853 in the absence of EPI is 1 μg/mL. […] Similar methodology was employed to examine the synergy with Escherichia coli ATCC 25922 in the presence of varied concentrations of these EPIs using clarithromycin as the antibiotic.

Test [3] relates to Pseudomonas aeruginosa ATCC 27853. Nature of the test: Standard EPI assay: levofloxacin MIC with EPI. The format is cell-based. The following applies: levofloxacin as antibiotic; P. aeruginosa ATCC 27853; EPI at 12.5 (μg). The procedure:
as §1, §2, §3

The next test has as its system P. aeruginosa ATCC 27853. Nature of the test: Pre-exposure bacterial EPI assay (MIC against bacteria pre-exposed to 1/2 x MIC antibiotic). The note with it: Pseudomonas aeruginosa, ATCC27853, read-out: MIC of cefepime against P. aeruginosa pre-exposed to cefepime. The format is cell-based. The source says: The principle underlying this pre-exposure is that exposure of the bacteria to sub-inhibitory concentrations of the test antibiotic will induce expression of efflux pumps, if any, and may represent the scenario in vivo more accurately.

For `NC[C@H]1CN[C@H](CNC(=O)c2nc3cc(-c4ccc(F)cc4)ccc3[nH]2)C1` [Example 22, N-(((2S,4S)-4-(aminomethyl)pyrrolidin-2-yl)methyl)-5-(4-fluorophenyl)-1H-benzo[d]imidazole-2-carboxamidedihydrochloride], the “% Survival (72 hr) Antibiotic + EPI” value in test [1] (250 ul + Example 22 2.0 mg/ml b.i.d.) is 75%. Also, the “Enhanced Activity in E. coli (fold enhancement of antibiotic activity / EPI concentration)” value in test [2] amounted to 2×/6.25. Besides, the “Enhanced Activity in P. aeruginosa (fold enhancement of antibiotic activity / EPI concentration)” value in test [3] is reported as 32×/12.5.

As for `CO/N=C(\C(=O)N[C@@H]1C(=O)N2C(C(=O)[O-])=C(C[N+]3(C)CCCC3)CS[C@H]12)c1csc(N)n1` [cefepime, reference compound], in test [1] (250 ul), the “% Survival (72 hr) Antibiotic Only” value worked out at 25%*****. Also, the minimal inhibitory concentration (MIC) in the test with P. aeruginosa ATCC 27853 came out at 16 µg/mL.
